Source: patent publication US20210338658A1, “MACROLIDE COMPOUNDS AND THEIR USE IN LIVER STAGE MALARIA AND RELATED DISEASE” (The Johns Hopkins University, priority 2014, published 2021)
“Also recorded” adds a separate entry of the source.

Key:
[1] = tested on: P. berghei sporozoites; assay: In vitro malaria liver stage assay (infected Hepa1-6 cells counted by anti-HSP70 immunofluorescence); format: cell-based, Plasmodium berghei; settings: for reduction of parasite multiplication / growth in vitro: 10 μM
Method: 3A. […] Error is standard error of the mean of duplicate wells performed in biologic replicate. 3B. […] 50,000 Hepa1-6 cells were seeded in each well 24 hours prior to infection with 50,000 P. berghei sporozoites. The 2E6 anti-HSP70 antibody was used for immunofluorescent numeration of infected cells.
Drugs were purchased from either Sigma or Ambinter. In each chamber of 8-well LabTek tissue culture slides, 50,000 mouse hepatoma cells, Hepa1-6, were seeded one day before infection. Cells were normally cultured in DMEM supplemented with 10% FBS, 1× L-glutamine and 1× Pen-Strep at 37° C. and 5% CO2. Once incubated with P. berghei sporozoites, the culture medium supplement was changed to 2.5% FBS, 1× L-glutamine and 2× Pen-Strep. Before treatment with drugs, the cells were washed four times with DMEM containing 10× Pen-Strep and 5 ug/mL fungicide. After 24 hours, fresh culture medium containing drugs was added to each chamber. Approximately 42 hours post-infection, the growth medium was removed and 100% cold methanol was added for 15 minutes to fix the cells. After washing with sterile PBS, cells were incubated in PBS with 5% FBS for blocking. Then 2E6 anti-HSP70 antibody was diluted to 10 μg/mL in PBS with 5% FBS and added in a 200 μL volume to cells. One hour later, cells were washed with PBS and incubated with 10 μg/mL Alexafour 594 anti-mouse secondary antibody. In order to visualize hepatocytes, nuclear counterstain DAPI was incubated with cells for 5 minutes and then washed off. The plastic chambers and silicone gasket were removed and slide was fully dried before mounted and sealed with cover slides. When preparation was complete, slide was taken to the fluorescence microscope for examination. Representative areas were randomly selected from each chamber and the numbers of infected cells were counted for a similar number of microscopic fields. The level of inhibition was determined by comparing the average of each chamber containing treated cells with that of the controls.
Five compounds were procured while cethromycin was synthesized. Cethromycin was directly synthesized from erythromycin by substituting the cladinose sugar at C3 with a keto-group, attaching a cyclic carbamate group at C11-C12, and tethering the quinoline moiety to the C6 alcohol. We used the in vitro P. berghei ANKA model on mouse hepatoma cells, Hepa1-6. […] Quinoline, erythromycin and their combination were also tested to investigate the role the quinoline plays in the antimalarial activity of cethromycin. […] Due to limited synthesized amounts of cethromycin, only one dose was given to mice while other drugs and compounds were administered twice.

[2] = over 5,000 humans, single day dosing; cited from earlier work
[3] = tested on: P. berghei sporozoites; assay: In vivo liver stage assay (mouse liver parasite load by real-time PCR); settings: for effect on parasite growth in mice (in words): dose not given; for inhibitory effect on parasite proliferation in mice (in words): two doses 24 hours apart; for side effects in the mice: after two doses
Method: Approximately 10,000 sporozoites were inoculated by tail vein injection and mice were sacrificed 40 hours later, livers were harvested, placed in RNAzol and parasite levels determined by realtime PCR from cDNA from reverse transcription. Relative fluorescent units were compared to control to determine percent inhibition. Cethromycin (CET) was administered only once while the other drugs were given twice 24 hours apart from each dose. […] Error is standard error of mean of three mice with real time PCR performed in duplicate for transcript levels in each mouse.
Mice were kept in Johns Hopkins Bloomberg School of Public Health mouse facility according to the ACUC animal protocol number MO09H401. Six week old C57BL/6 mice weighing about 20-22 g were divided into groups of three. 12,000 P. berghei sporozoites in a 200 μL volume were injected into mice through tail veins. Two hours after injection, different dilutions of drugs in 100-200 μL volumes were delivered to mice by oral gavage using a plastic feeding tube. A second dose of drugs was given 24 hours after the first one to the mice that were on a daily dosing regimen. Approximately 40 hours post-infection, mice infected with P. berghei sporozoites were anesthetized by inhaling Metofane® and sacrificed for harvesting whole livers. Each mouse liver was immediately put into 10 mL of Trizol® Reagent and fully homogenized. After RNA isolation, the RNA was diluted to 100 ng/mL for reverse-transcription reactions. For a 30 μL reaction, the components were set up as: 3.5 μL of nuclease-free water, 3 μL of 10× Buffer II and 10 mM dNTPs, 6 μL of MgCl2 solution, 1.5 μL of 50 μM Random Hexamers, RNase Inhibitor and MuLV Reverse Transcriptase, 10 μL of RNA sample. cDNA products were stored at −20° C. For a 10 μL real-time quantitative PCR, the components were set up as: 0.2 μL of 10 μM forward and reverse primer 18s P. berghei, 5 μL of 2×SYBR Green PCR Master Mix, 1.6 μL of nuclease-free water, and 3 μL of cDNA sample. All test subjects were done in duplicates including positive and negative controls. When real-time PCR was finished, all data were baselined and normalized to the housekeeping gene before further analysis. The specific sequences of primers (The Core DNA Analysis Facility—JHU, Baltimore, Md.) were: 5′-[…]-3′ (SEQ ID NO: 1) and 5′-[…]-3′(SEQ ID NO: 2) for P. berghei ANKA 18s and 5′-[…]1TAGC-3′ (SEQ ID NO: 3) and 5′-[…]-3′ (SEQ ID NO: 4) for mouse HPRT.

[4] = tested on: Plasmodium; settings: reference molecules of the training set; read-out: liver stage inhibition; cited from earlier work

| Structure (SMILES) | parasite inhibition in vitro (in words) ([1]; Hepa1-6 cells) | effect on parasite growth in mice (in words) ([3]; oral gavage) | inhibitory effect on parasite proliferation in mice (in words) ([3]; 50 mg/kg) | side effects in the mice ([3]; 50 mg/kg) | other results |
| --- | --- | --- | --- | --- | --- |
| CC[C@H]1OC(=O)[C@H](C)C(=O)[C@H](C)[C@@H](O[C@@H]2O[C@H](C)C[C@H](N(C)C)[C@H]2O)[C@@](C)(OC/C=C/c2cnc3ccccc3c2)C[C@@H](C)C(=O)[C@H](C)[C@H]2NC(=O)O[C@@]21C [Cethromycin, (1R,2R,4R,6S,7R,8R,10R,13R,14S)-7-[(2S,3R,4S,6R)-4-(dimethylamino)-3-hydroxy-6-methyloxan-2-yl]oxy-13-ethyl-2,4,6,8,10,14-hexamethyl-6-[(E)-3-quinolin-3-ylprop-2-enoxy]-12,15-dioxa-17-azabicyclo[12.3.0]heptadecane-3,9,11,16-tetrone] | measurable inhibitory effect; also recorded: active | active | – | – | inhibition of liver stage malaria in vitro (reduction of parasite growth) ([1]; 20 μM, Hepa1-6 cells): 54%; inhibition at 20 µM ([1]; Plasmodium berghei, Hepa1-6, 20 μM, Hepa1-6 cells, read-out: inhibition of liver stage malaria in vitro (reduction of parasite growth)): 52%; safety in humans [2]: used safely; inhibition of liver parasites in mice ([3]; 12 mg/kg, oral gavage): about 16%; reduction of parasite load in mouse liver ([3]; 50 mg/kg, oral gavage, one dose, liver 40 hours post-infection): 60%; effect on parasite load in mice (in words) ([3]; cethromycin 12 mg/kg): only partially effective |
| O=C(COC(=O)c1cccnc1SCC(=O)Nc1cc(S(=O)(=O)N2CCOCC2)ccc1Cl)Nc1cc(S(=O)(=O)N2CCOCC2)ccc1Cl [T0507-9950, [2-(2-chloro-5-morpholin-4-ylsulfonylanilino)-2-oxoethyl] 2-[2-(2-chloro-5-morpholin-4-ylsulfonylanilino)-2-oxoethyl]sulfanylpyridine-3-carboxylate] | measurable inhibitory effect | – | significant inhibitory effect | without causing any notable side effects | – |
| O=C(/C=C/c1ccc(Cl)cc1Cl)Nc1cc(S(=O)(=O)N2CCCCC2)ccc1Cl [T0510-7064, (E)-N-(2-chloro-5-piperidin-1-ylsulfonylphenyl)-3-(2,4-dichlorophenyl)prop-2-enamide] | measurable inhibitory effect | – | significant inhibitory effect | without causing any notable side effects | reduction of parasite multiplication / growth in vitro ([1]; Hepa1-6 cells): 54% |
| CCN(CC)S(=O)(=O)c1cccc(-c2nnc(SC(C)C(=O)Nc3ccc(C)c(S(=O)(=O)N(CC)CC)c3)n2Cc2ccccc2)c1 (stereo not drawn) [T5531873, 2-[[4-benzyl-5-[3-(diethylsulfamoyl)phenyl]-1,2,4-triazol-3-yl]sulfanyl]-N-[3-(diethylsulfamoyl)-4-methylphenyl]propanamide] | measurable inhibitory effect | – | significant inhibitory effect | without causing any notable side effects | reduction of parasite multiplication / growth in vitro ([1]; Hepa1-6 cells): over 95%; inhibition of liver stage malaria in vitro ([1]; FIG. 3, concentration not given): ~95% |
| CC[C@H]1OC(=O)[C@H](C)[C@@H](O[C@H]2C[C@@](C)(OC)[C@@H](O)[C@H](C)O2)[C@H](C)[C@@H](O[C@@H]2O[C@H](C)C[C@H](N(C)C)[C@H]2O)[C@](C)(O)C[C@@H](C)C(=O)[C@H](C)[C@@H](O)[C@]1(C)O [erythromycin] | Neither quinoline, nor erythromycin, nor their combination showed any parasite inhibition; also recorded: inactive; also recorded: no activity | only marginal inhibitory effect; also recorded: no activity | – | – | – |
| CC[C@@]1([C@@H]2O[C@@H]([C@H]3O[C@@](O)(CO)[C@H](C)C[C@@H]3C)C[C@@H]2C)CC[C@H]([C@]2(C)CC[C@]3(C[C@H](O)[C@@H](C)[C@@H]([C@@H](C)[C@@H](OC)[C@H](C)C(=O)O)O3)O2)O1 [monensin] | – | – | – | – | IC50 [4]: 1 pM |
| COc1cc(NC(C)CCCN)c2ncccc2c1 (stereo not drawn) [primaquine] | – | – | – | – | inhibition of liver parasites in mice ([3]; primaquine 15 mg/kg, oral gavage): 83% |
| c1ccc2ncccc2c1 [quinoline] | Neither quinoline, nor erythromycin, nor their combination showed any parasite inhibition; also recorded: inactive; also recorded: no activity | only marginal inhibitory effect; also recorded: no activity | – | – | effect on parasite growth in mice (in words) ([3]; oral gavage, listed as quinolone): only marginal effect |
